Measured values: patent publication US11401286B2 (Tetra Discovery Partners, LLC, priority 2012, dated 2022)
Structures can show the parent of a compound that is named as a salt.

biological target: PDE4D7 (Homo sapiens (Human), UniProt Q08499); conditions: not given
Sequence (Q08499 other isoform, or with tags, fused parts or gaps): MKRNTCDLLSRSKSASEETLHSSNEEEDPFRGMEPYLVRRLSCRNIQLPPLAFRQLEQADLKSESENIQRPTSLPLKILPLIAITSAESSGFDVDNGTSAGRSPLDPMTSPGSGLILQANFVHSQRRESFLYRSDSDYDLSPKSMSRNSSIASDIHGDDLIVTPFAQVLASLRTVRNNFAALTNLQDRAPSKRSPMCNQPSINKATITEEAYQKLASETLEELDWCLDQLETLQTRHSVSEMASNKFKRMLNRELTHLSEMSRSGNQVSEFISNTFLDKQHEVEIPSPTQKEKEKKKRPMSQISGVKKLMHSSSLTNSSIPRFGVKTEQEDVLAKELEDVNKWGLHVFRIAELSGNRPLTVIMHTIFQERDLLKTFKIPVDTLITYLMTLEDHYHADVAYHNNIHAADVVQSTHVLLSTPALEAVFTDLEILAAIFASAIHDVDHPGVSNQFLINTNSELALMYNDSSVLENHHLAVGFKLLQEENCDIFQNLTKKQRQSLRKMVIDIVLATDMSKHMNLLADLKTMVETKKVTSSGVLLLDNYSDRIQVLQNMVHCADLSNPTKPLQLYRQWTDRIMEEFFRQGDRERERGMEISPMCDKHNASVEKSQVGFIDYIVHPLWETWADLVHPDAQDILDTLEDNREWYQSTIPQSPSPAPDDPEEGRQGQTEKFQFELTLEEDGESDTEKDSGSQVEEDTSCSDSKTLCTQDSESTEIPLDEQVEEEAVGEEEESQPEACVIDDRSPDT

| SMILES | IC50 [nM] |
| --- | --- |
| CN(c1ccc(CC(N)=O)cc1)c1cc(-c2cccc(Cl)c2)nc2c1CCC2 [Example 118, 2-(4-((2-(3-Chlorophenyl)-6,7-dihydro-5H-cyclopenta[b]pyridin-4-yl)(methyl)amino)phenyl)acetamide] | > 1000 |

same assay, conditions: read-out: PDE4D7 IC50; PDE4D7 without asterisk

| IC50 [nM] | SMILES |
| --- | --- |
| > 1000 | NC(=O)Cc1ccc(Cc2cc(-c3cccc(Cl)c3)nc(C(F)(F)F)c2)cc1 [Example 144, 2-(4-((2-(3-Chlorophenyl)-6-(trifluoromethyl)pyridin-4-yl)methyl)phenyl)acetamide] |
| < 1000 | NC(=O)Cc1ccc(Nc2cc(-c3cccc(Cl)c3)nc(C(F)(F)F)c2)cc1 [Example 145, 2-(4-((2-(3-Chlorophenyl)-6-(trifluoromethyl)pyridin-4-yl)amino)phenyl)acetamide] |
| < 1000 | OCCc1ccc(Nc2cc(-c3cccc(Cl)c3)nc(C(F)(F)F)c2)cc1 [Example 146, 2-(4-((2-(3-Chlorophenyl)-6-(trifluoromethyl)pyridin-4-yl)amino)phenyl)ethanol] |
| < 1000 | OCCCc1ccc(Nc2cc(-c3cccc(Cl)c3)nc(C(F)(F)F)c2)cc1 [Example 147, 3-(4-((2-(3-Chlorophenyl)-6-(trifluoromethyl)pyridin-4-yl)amino)phenyl)propan-1-ol] |
| > 1000 | NC(=O)Cc1ccc(Nc2cc(-c3ccc(Cl)cc3)nc3c2CCC3)cc1 [Example 148, 2-(4-((2-(4-Chlorophenyl)-6,7-dihydro-5H-cyclopenta[b]pyridin-4-yl)amino)phenyl)acetamide hydrochloride] |
| > 1000 | OCCc1ccc(Nc2cc(-c3ccc(Cl)cc3)nc3c2CCC3)cc1 [Example 149, 2-(4-((2-(4-Chlorophenyl)-6,7-dihydro-5H-cyclopenta[b]pyridin-4-yl)amino)phenyl)ethanol hydrochloride] |
| > 1000 | NC(=O)Cc1ccc(Nc2cc(-c3ccc(F)c(Cl)c3)nc3c2CCC3)cc1 [Example 150, 2-(4-((2-(3-Chloro-4-fluorophenyl)-6,7-dihydro-5H-cyclopenta[b]pyridin-4-yl)amino)phenyl)acetamide hydrochloride] |
| > 1000 | OCCc1ccc(Nc2cc(-c3ccc(F)c(Cl)c3)nc3c2CCC3)cc1 [Example 151, 2-(4-((2-(3-Chloro-4-fluorophenyl)-6,7-dihydro-5H-cyclopenta[b]pyridin-4-yl)amino)phenyl)ethanol hydrochloride] |
| > 1000 | NC(=O)Cc1ccc(Nc2cc(-c3cc(F)cc(Cl)c3)nc3c2CCC3)cc1 [Example 152, 2-(4-((2-(3-Chloro-5-fluorophenyl)-6,7-dihydro-5H-cyclopenta[b]pyridin-4-yl)amino)phenyl)acetamide hydrochloride] |
| > 1000 | OCCc1ccc(Nc2cc(-c3cc(F)cc(Cl)c3)nc3c2CCC3)cc1 [Example 153, 2-(4-((2-(3-Chloro-5-fluorophenyl)-6,7-dihydro-5H-cyclopenta[b]pyridin-4-yl)amino)phenyl)ethanol hydrochloride] |
| > 1000 | OCCc1ccc(Nc2cc(-c3ccc(Cl)c(Cl)c3)nc3c2CCC3)cc1 [Example 154, 2-(4-((2-(3,4-Dichlorophenyl)-6,7-dihydro-5H-cyclopenta[b]pyridin-4-yl)amino)phenyl)ethanol hydrochloride] |
| > 1000 | NC(=O)Cc1ccc(Nc2cc(-c3cc(Cl)ccc3Cl)nc3c2CCC3)cc1 [Example 155, 2-(4-((2-(2,5-Dichlorophenyl)-6,7-dihydro-5H-cyclopenta[b]pyridin-4-yl)amino)phenyl)acetamide hydrochloride] |
| > 1000 | OCCc1ccc(Nc2cc(-c3cc(Cl)ccc3Cl)nc3c2CCC3)cc1 [Example 156, 2-(4-((2-(2,5-Dichlorophenyl)-6,7-dihydro-5H-cyclopenta[b]pyridin-4-yl)amino)phenyl)ethanol hydrochloride] |
| > 1000 | NC(=O)Cc1ccc(Nc2cc(-c3cc(Cl)cc(Cl)c3)nc3c2CCC3)cc1 [Example 157, 2-(4-((2-(3,5-Dichlorophenyl)-6,7-dihydro-5H-cyclopenta[b]pyridin-4-yl)amino)phenyl)acetamide hydrochloride] |
| > 1000 | OCCc1ccc(Nc2cc(-c3cc(Cl)cc(Cl)c3)nc3c2CCC3)cc1 [Example 158, 2-(4-((2-(3,5-Dichlorophenyl)-6,7-dihydro-5H-cyclopenta[b]pyridin-4-yl)amino)phenyl)ethanol hydrochloride] |
| > 1000 | Cc1cccc(-c2cc(Nc3ccc(CC(N)=O)cc3)c3c(n2)CCC3)c1 [Example 159, 2-(4-((2-(m-Tolyl)-6,7-dihydro-5H-cyclopenta[b]pyridin-4-yl)amino)phenyl)acetamide hydrochloride] |

Second part, the compound before the results:

| SMILES | IC50 [nM] |
| --- | --- |
| CC(CO)Oc1ccc(Nc2cc(-c3cccc(Cl)c3)nc3c2CCC3)cc1 (stereo not shown) [Example 117, 2-(4-((2-(3-Chlorophenyl)-6,7-dihydro-5H-cyclopenta[b]pyridin-4-yl)amino)phenoxy)propan-1-ol hydrochloride] | > 1000 |
| NC(=O)CCc1ccc(Nc2cc(-c3cccc(Cl)c3)nc3c2CCC3)cc1 [Example 119, 3-(4-((2-(3-chlorophenyl)-6,7-dihydro-5H-cyclopenta[b]pyridin-4-yl)amino)phenyl)propanamide hydrochloride] | > 1000 |
| CNC(=O)Cc1ccc(Nc2cc(-c3cccc(Cl)c3)nc3c2CCC3)cc1 [Example 120, 2-(4-((2-(3-chlorophenyl)-6,7-dihydro-5H-cyclopenta[b]pyridin-4-yl)amino)phenyl)-N-methylacetamide hydrochloride] | > 1000 |
| CN(C)C(=O)Cc1ccc(Nc2cc(-c3cccc(Cl)c3)nc3c2CCC3)cc1 [Example 121, 2-(4-((2-(3-chlorophenyl)-6,7-dihydro-5H-cyclopenta[b]pyridin-4-yl)amino)phenyl)-N,N-dimethylacetamide hydrochloride] | < 1000 |
| NC(=O)C(Cc1ccc(Nc2cc(-c3cccc(Cl)c3)nc3c2CCC3)cc1)C(N)=O [Example 122, 2-(4-((2-(3-Chlorophenyl)-6,7-dihydro-5H-cyclopenta[b]pyridin-4-yl)amino)benzyl)malonamide hydrochloride] | > 1000 |
| CC(Cc1ccc(Nc2cc(-c3cccc(Cl)c3)nc3c2CCC3)cc1)(C(N)=O)C(N)=O [Example 124, 2-(4-((2-(3-Chlorophenyl)-6,7-dihydro-5H-cyclopenta[b]pyridin-4-yl)amino)benzyl)-2-methylmalonamide hydrochloride] | > 1000 |
| NC(=O)Cc1ccc(Cc2cc(-c3cccc(Cl)c3)nc3c2CCC3)cc1 [Example 125, 2-(4-((2-(3-Chlorophenyl)-6,7-dihydro-5H-cyclopenta[b]pyridin-4-yl)methyl)phenyl)acetamide hydrochloride] | > 1000 |
| CC(C)(C(=O)O)c1ccc(Cc2cc(-c3cccc(Cl)c3)nc3c2CCC3)cc1 [Example 126, 2-(4-((2-(3-Chlorophenyl)-6,7-dihydro-5H-cyclopenta[b]pyridin-4-yl)methyl)phenyl)-2-methylpropanoic acid hydrochloride] | > 1000 |
| CC(C)(C(N)=O)c1ccc(Cc2cc(-c3cccc(Cl)c3)nc3c2CCC3)cc1 [Example 127, 2-(4-((2-(3-Chlorophenyl)-6,7-dihydro-5H-cyclopenta[b]pyridin-4-yl)methyl)phenyl)-2-methylpropanamide hydrochloride] | > 1000 |
| CC(C)(CO)c1ccc(Cc2cc(-c3cccc(Cl)c3)nc3c2CCC3)cc1 [Example 128, 2-(4-((2-(3-Chlorophenyl)-6,7-dihydro-5H-cyclopenta[b]pyridin-4-yl)methyl)phenyl)-2-methylpropan-1-ol hydrochloride] | > 1000 |
| CN(C(N)=O)c1ccc(Nc2cc(-c3cccc(Cl)c3)nc3c2CCC3)cc1 [Example 129, 1-(4-((2-(3-Chlorophenyl)-6,7-dihydro-5H-cyclopenta[b]pyridin-4-yl)amino)phenyl)-1-methylurea hydrochloride] | > 1000 |
| NC(=O)CCCc1ccc(Nc2cc(-c3cccc(Cl)c3)nc3c2CCC3)cc1 [Example 130, 4-(4-((2-(3-Chlorophenyl)-6,7-dihydro-5H-cyclopenta[b]pyridin-4-yl)amino)phenyl)butanamide hydrochloride] | > 1000 |
| NC(=O)Cc1ccc(Cc2cc(OC3CCCC3)nc3c2CCC3)cc1 [Example 131, 2-(4-((2-(Cyclopentyloxy)-6,7-dihydro-5H-cyclopenta[b]pyridin-4-yl)methyl)phenyl)acetamide hydrochloride] | > 1000 |
| OCCc1ccc(Nc2cc(-c3ccc[nH]3)nc3c2CCC3)cc1 [Example 132, 2-(4-((2-(1H-Pyrrol-2-yl)-6,7-dihydro-5H-cyclopenta[b]pyridin-4-yl)amino)phenyl)ethanol hydrochloride] | > 1000 |
| NC(=O)Cc1ccc(Nc2cc(-c3ccc[nH]3)nc3c2CCC3)cc1 [Example 133, 2-(4-((2-(1H-Pyrrol-2-yl)-6,7-dihydro-5H-cyclopenta[b]pyridin-4-yl)amino)phenyl)acetamide hydrochloride] | > 1000 |
| NC(=O)Cc1ccc(Nc2cc(-c3cncc(Cl)c3)nc3c2CCC3)cc1 [Example 134, 2-(4-((2-(5-Chloropyridin-3-yl)-6,7-dihydro-5H-cyclopenta[b]pyridin-4-yl)amino)phenyl)acetamide hydrochloride] | > 1000 |
| NC(=O)Cc1ccc(Nc2cc(-c3cccc(Cl)c3)nc(C3CC3)c2)cc1 [Example 139, 2-(4-((2-(3-Chlorophenyl)-6-cyclopropylpyridin-4-yl)amino)phenyl)acetamide hydrochloride] | < 1000 |
| OCCc1ccc(Nc2cc(-c3cccc(Cl)c3)nc(C3CC3)c2)cc1 [Example 140, 2-(4-((2-(3-Chlorophenyl)-6-cyclopropylpyridin-4-yl)amino)phenyl)ethanol hydrochloride] | > 1000 |
| COC(=O)Cc1ccc(Cc2cc(-c3cccc(Cl)c3)nc(C(F)(F)F)c2)cc1 [Example 141, Methyl 2-(4-((2-(3-chlorophenyl)-6-(trifluoromethyl)pyridin-4-yl)methyl)phenyl)acetate] | > 1000 |
| OCCc1ccc(Cc2cc(-c3cccc(Cl)c3)nc(C(F)(F)F)c2)cc1 [Example 143, 2-(4-((2-(3-Chlorophenyl)-6-(trifluoromethyl)pyridin-4-yl)methyl)phenyl)ethanol] | > 1000 |
